In the supplement of paper PMC10307832:

How the values were obtained:
Assay in all cases: relative viability (nuclei count vs DMSO), 5 days (fraction); higher = more cells survive
[1] = tested on: A-427
Procedure, shortened: (§1)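 Values are medians from duplicate plates. Each reflects relative viability, defined as the nuclei count of treated wells over that of vehicle wells. Lung cancer cell lines in 1536-well plates were pin-tool dosed one day after seeding with one drug alone or with a fixed anchor-drug dose plus five library-drug doses (not always all listed) in √10 steps, then fixed, stained and imaged at 4× after 5 days.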

[2] = tested on: ABC-1
Procedure, shortened: as §1

[3] = tested on: EPLC-272H
Procedure, shortened: as §1

[4] = tested on: HCC-15
Procedure, shortened: as §1

[5] = tested on: LC-2-ad
Procedure, shortened: as §1

[6] = tested on: LK-2
Procedure, shortened: as §1

[7] = tested on: NCI-H1734
Procedure, shortened: as §1

[8] = tested on: NCI-H1793
Procedure, shortened: as §1

[9] = tested on: NCI-H1915
Procedure, shortened: as §1

[10] = tested on: NCI-H1944
Procedure, shortened: as §1

[11] = tested on: NCI-H2342
Procedure, shortened: as §1

[12] = tested on: NCI-H2347
Procedure, shortened: as §1

[13] = tested on: NCI-H322M
Procedure, shortened: as §1

[14] = tested on: NCI-H358
Procedure, shortened: as §1

[15] = tested on: NCI-H441
Procedure, shortened: as §1

[16] = tested on: NCI-H522
Procedure, shortened: as §1

[17] = tested on: NCI-H647
Procedure, shortened: as §1

[18] = tested on: NCI-H838
Procedure, shortened: as §1

[19] = tested on: RERF-LC-KJ
Procedure, shortened: as §1

For `Cc1cn(-c2cc(NC(=O)c3ccc(C)c(Nc4nccc(-c5cccnc5)n4)c3)cc(C(F)(F)F)c2)cn1` [Nilotinib] + NC(=O)Nc1cc(-c2cccc(F)c2)sc1C(=O)N[C@H]1CCCNC1 [AZD7762] (partner 0.2 µM), the relative viability ([1]; first compound 0.001 µM) was 0.716, the relative viability ([1]; first compound 0.003162 µM) was 0.501 and the relative viability ([1]; first compound 0.01 µM) was 0.681. The relative viability ([1]; first compound 0.03162 µM) was 0.535, the relative viability ([1]; first compound 0.1 µM) was 0.338 and the relative viability ([2]; first compound 0.001 µM) was 0.667. It also gave a relative viability ([2]; first compound 0.003162 µM) of 0.73, a relative viability ([2]; first compound 0.01 µM) of 0.803 and a relative viability ([2]; first compound 0.03162 µM) of 0.787. For the same compound, the relative viability ([2]; first compound 0.1 µM) was 0.387, the relative viability ([3]; first compound 0.001 µM) was 0.267 and the relative viability ([3]; first compound 0.003162 µM) was 0.13. For the same compound, the relative viability ([3]; first compound 0.01 µM) was 0.164, the relative viability ([3]; first compound 0.03162 µM) was 0.186 and the relative viability ([3]; first compound 0.1 µM) was 0.198. For the same compound, the relative viability ([4]; first compound 0.001 µM) was 1.1, the relative viability ([4]; first compound 0.003162 µM) was 1.28 and the relative viability ([4]; first compound 0.01 µM) was 1.39. It also gave a relative viability ([4]; first compound 0.03162 µM) of 1.25, a relative viability ([4]; first compound 0.1 µM) of 1.19 and a relative viability ([5]; first compound 0.001 µM) of 0.855. For the same compound, the relative viability ([5]; first compound 0.003162 µM) was 1.01, the relative viability ([5]; first compound 0.01 µM) was 1.02 and the relative viability ([5]; first compound 0.03162 µM) was 0.748. It also gave a relative viability ([5]; first compound 0.1 µM) of 0.377, a relative viability ([6]; first compound 0.001 µM) of 0.349 and a relative viability ([6]; first compound 0.003162 µM) of 0.447. The relative viability ([6]; first compound 0.01 µM) was 0.47, the relative viability ([6]; first compound 0.03162 µM) was 0.382 and the relative viability ([6]; first compound 0.1 µM) was 0.514. It also gave a relative viability ([7]; first compound 0.001 µM) of 0.498, a relative viability ([7]; first compound 0.003162 µM) of 0.617 and a relative viability ([7]; first compound 0.01 µM) of 0.558. The relative viability ([7]; first compound 0.03162 µM) was 0.387, the relative viability ([7]; first compound 0.1 µM) was 0.219 and the relative viability ([8]; first compound 0.001 µM) was 0.388. The relative viability ([8]; first compound 0.003162 µM) was 0.318, the relative viability ([8]; first compound 0.01 µM) was 0.303 and the relative viability ([8]; first compound 0.03162 µM) was 0.243. It also gave a relative viability ([8]; first compound 0.1 µM) of 0.146, a relative viability ([9]; first compound 0.001 µM) of 0.682 and a relative viability ([9]; first compound 0.003162 µM) of 0.683. It also gave a relative viability ([9]; first compound 0.01 µM) of 0.718, a relative viability ([9]; first compound 0.03162 µM) of 0.67 and a relative viability ([9]; first compound 0.1 µM) of 0.619. The relative viability ([10]; first compound 0.001 µM) was 0.436, the relative viability ([10]; first compound 0.003162 µM) was 0.75 and the relative viability ([10]; first compound 0.01 µM) was 0.41. It also gave a relative viability ([10]; first compound 0.03162 µM) of 0.285, a relative viability ([10]; first compound 0.1 µM) of 0.299 and a relative viability ([11]; first compound 0.001 µM) of 0.425. The relative viability ([11]; first compound 0.003162 µM) was 0.315, the relative viability ([11]; first compound 0.01 µM) was 0.411 and the relative viability ([11]; first compound 0.03162 µM) was 0.463. For the same compound, the relative viability ([11]; first compound 0.1 µM) was 0.427, the relative viability ([12]; first compound 0.001 µM) was 0.691 and the relative viability ([12]; first compound 0.003162 µM) was 0.597. It also gave a relative viability ([12]; first compound 0.01 µM) of 0.748, a relative viability ([12]; first compound 0.03162 µM) of 0.567 and a relative viability ([12]; first compound 0.1 µM) of 0.596. For the same compound, the relative viability ([13]; first compound 0.001 µM) was 0.597, the relative viability ([13]; first compound 0.003162 µM) was 0.525 and the relative viability ([13]; first compound 0.01 µM) was 0.518. It also gave a relative viability ([13]; first compound 0.03162 µM) of 0.41, a relative viability ([13]; first compound 0.1 µM) of 0.407 and a relative viability ([14]; first compound 0.001 µM) of 0.458. The relative viability ([14]; first compound 0.003162 µM) was 0.539, the relative viability ([14]; first compound 0.01 µM) was 0.556 and the relative viability ([14]; first compound 0.03162 µM) was 0.459. For the same compound, the relative viability ([14]; first compound 0.1 µM) was 0.523, the relative viability ([15]; first compound 0.001 µM) was 1.08 and the relative viability ([15]; first compound 0.003162 µM) was 1.21. For the same compound, the relative viability ([15]; first compound 0.01 µM) was 1.19, the relative viability ([15]; first compound 0.03162 µM) was 0.714 and the relative viability ([15]; first compound 0.1 µM) was 0.565. For the same compound, the relative viability ([16]; first compound 0.01 µM) was 0.861, the relative viability ([16]; first compound 0.03162 µM) was 0.767 and the relative viability ([16]; first compound 0.1 µM) was 0.649. It also gave a relative viability ([17]; first compound 0.001 µM) of 0.477, a relative viability ([17]; first compound 0.003162 µM) of 0.41 and a relative viability ([17]; first compound 0.01 µM) of 0.359. The relative viability ([17]; first compound 0.03162 µM) was 0.285, the relative viability ([17]; first compound 0.1 µM) was 0.341 and the relative viability ([18]; first compound 0.001 µM) was 0.86. For the same compound, the relative viability ([18]; first compound 0.003162 µM) was 1.01, the relative viability ([18]; first compound 0.03162 µM) was 0.9 and the relative viability ([18]; first compound 0.1 µM) was 0.995. The relative viability ([19]; first compound 0.001 µM) was 0.834, the relative viability ([19]; first compound 0.003162 µM) was 1.02 and the relative viability ([19]; first compound 0.01 µM) was 1.16. It also gave a relative viability ([19]; first compound 0.03162 µM) of 0.598 and a relative viability ([19]; first compound 0.1 µM) of 0.427.
